{"source": "ChEMBL document CHEMBL1201862", "about": "“PubChem BioAssay data set” (2004)", "test_in_all_cases": "NCI-60 cell line screen, 48 h", "key": {"Hs-578T": {"tested_on": "Hs-578T"}, "NCI/ADR-RES": {"tested_on": "NCI/ADR-RES"}, "HCT-15": {"tested_on": "HCT-15"}, "OVCAR-3": {"tested_on": "OVCAR-3"}, "SR": {"tested_on": "SR"}, "SF-539": {"tested_on": "SF-539"}, "MCF7": {"tested_on": "MCF7"}, "SK-MEL-28": {"tested_on": "SK-MEL-28"}, "SW-620": {"tested_on": "SW-620"}, "RXF 631": {"tested_on": "RXF 631"}, "HCC 2998": {"tested_on": "HCC 2998"}, "SF-268": {"tested_on": "SF-268"}, "OVCAR-5": {"tested_on": "OVCAR-5"}, "U-251": {"tested_on": "U-251"}, "OVCAR-4": {"tested_on": "OVCAR-4"}, "HCT-116": {"tested_on": "HCT-116"}, "KM12": {"tested_on": "KM12"}, "SF-295": {"tested_on": "SF-295"}, "786-0": {"tested_on": "786-0"}, "MDA-MB-231": {"tested_on": "MDA-MB-231"}, "OVCAR-8": {"tested_on": "OVCAR-8"}, "HL-60": {"tested_on": "HL-60"}, "RXF 393": {"tested_on": "RXF 393"}, "SNB-78": {"tested_on": "SNB-78"}, "M14": {"tested_on": "M14"}, "NCI-H226": {"tested_on": "NCI-H226"}, "COLO 205": {"tested_on": "COLO 205"}, "TK-10": {"tested_on": "TK-10"}, "T47D": {"tested_on": "T47D"}, "K562": {"tested_on": "K562"}, "NCI-H460": {"tested_on": "NCI-H460"}, "SK-MEL-5": {"tested_on": "SK-MEL-5"}, "SN12C": {"tested_on": "SN12C"}, "XF498": {"tested_on": "XF498"}, "BT-549": {"tested_on": "BT-549"}, "DLD-1": {"tested_on": "DLD-1"}, "RPMI-8226": {"tested_on": "RPMI-8226"}, "LOX IMVI": {"tested_on": "LOX IMVI"}, "HT-29": {"tested_on": "HT-29"}, "ACHN": {"tested_on": "ACHN"}, "HOP-62": {"tested_on": "HOP-62"}, "DU-145": {"tested_on": "DU-145"}, "KM-20L2": {"tested_on": "KM-20L2"}, "MOLT-4": {"tested_on": "MOLT-4"}, "UACC-62": {"tested_on": "UACC-62"}, "SK-OV-3": {"tested_on": "SK-OV-3"}, "IGROV-1": {"tested_on": "IGROV-1"}, "UACC-257": {"tested_on": "UACC-257"}, "Malme-3M": {"tested_on": "Malme-3M"}, "MDA-N": {"tested_on": "MDA-N"}, "PC-3": {"tested_on": "PC-3"}, "SNB-75": {"tested_on": "SNB-75"}, "A549": {"tested_on": "A549"}, "SK-MEL-2": {"tested_on": "SK-MEL-2"}, "LXFL 529": {"tested_on": "LXFL 529"}, "HOP-92": {"tested_on": "HOP-92"}, "CCRF-CEM": {"tested_on": "CCRF-CEM"}, "A498": {"tested_on": "A498"}, "SNB-19": {"tested_on": "SNB-19"}, "UO-31": {"tested_on": "UO-31"}, "DMS-114": {"tested_on": "DMS-114"}, "EKVX": {"tested_on": "EKVX"}, "CAKI-1": {"tested_on": "CAKI-1"}, "MDA-MB-435": {"tested_on": "MDA-MB-435"}, "NCI-H522": {"tested_on": "NCI-H522"}, "NCI-H23": {"tested_on": "NCI-H23"}}, "note": "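Grown in 96-well plates, cells were treated for 48 hours with each compound at five concentrations. Insufficient inhibition: endpoint recorded as highest concentration tested. At the GI50, growth is halved.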 Calls of active or inactive are those of the source. Cut-off read from the data, not from the text of the source: active = GI50 up to about 1.1 µM and inactive = higher.", "data": [{"smiles": "C[C@]12CCC(=O)C(O)=C1CC[C@@H]1[C@@H]2CC[C@]2(C)C(=O)CC[C@@H]12", "note": "[FORMESTANE]", "values": [{"measurement": "GI50", "setting": "Hs-578T", "value": "> 100 µM (inactive)"}, {"measurement": "GI50", "setting": "NCI/ADR-RES", "value": "> 100 µM (inactive)"}, {"measurement": "GI50", "setting": "HCT-15", "value": "> 100", "unit": "µM"}, {"measurement": "GI50", "setting": "OVCAR-3", "value": "> 100 µM (inactive)"}, {"measurement": "GI50", "setting": "SR", "value": "> 100 µM (inactive)"}, {"measurement": "GI50", "setting": "SF-539", "value": "> 100 µM (inactive)"}, {"measurement": "GI50", "setting": "MCF7", "value": "> 100 µM (inactive)"}, {"measurement": "GI50", "setting": "SK-MEL-28", "value": "> 100 µM (inactive)"}, {"measurement": "GI50", "setting": "SW-620", "value": "> 100 µM (inactive)"}, {"measurement": "GI50", "setting": "RXF 631", "value": "> 100 µM (inactive)"}, {"measurement": "GI50", "setting": "HCC 2998", "value": "> 100 µM (inactive)"}, {"measurement": "GI50", "setting": "SF-268", "value": "> 100 µM (inactive)"}, {"measurement": "GI50", "setting": "OVCAR-5", "value": "> 100 µM (inactive)"}, {"measurement": "GI50", "setting": "U-251", "value": "> 100 µM (inactive)"}, {"measurement": "GI50", "setting": "OVCAR-4", "value": "> 100 µM (inactive)"}, {"measurement": "GI50", "setting": "HCT-116", "value": "> 93.1 µM (inactive)"}, {"measurement": "GI50", "setting": "KM12", "value": "> 74.3 µM (inactive)"}, {"measurement": "GI50", "setting": "SF-295", "value": "> 100 µM (inactive)"}, {"measurement": "GI50", "setting": "786-0", "value": "> 100 µM (inactive)"}, {"measurement": "GI50", "setting": "MDA-MB-231", "value": "> 100 µM (inactive)"}, {"measurement": "GI50", "setting": "OVCAR-8", "value": "> 100 µM (inactive)"}, {"measurement": "GI50", "setting": "HL-60", "value": "> 80.9 µM (inactive)"}, {"measurement": "GI50", "setting": "RXF 393", "value": "> 100 µM (inactive)"}, {"measurement": "GI50", "setting": "SNB-78", "value": "> 100 µM (inactive)"}, {"measurement": "GI50", "setting": "M14", "value": "> 100 µM (inactive)"}, {"measurement": "GI50", "setting": "NCI-H226", "value": "> 100 µM (inactive)"}, {"measurement": "GI50", "setting": "COLO 205", "value": "> 100 µM (inactive)"}, {"measurement": "GI50", "setting": "TK-10", "value": "> 100 µM (inactive)"}, {"measurement": "GI50", "setting": "T47D", "value": "> 100 µM (inactive)"}, {"measurement": "GI50", "setting": "K562", "value": "> 89.9 µM (inactive)"}, {"measurement": "GI50", "setting": "NCI-H460", "value": "> 100 µM (inactive)"}, {"measurement": "GI50", "setting": "SK-MEL-5", "value": "> 93.5 µM (inactive)"}, {"measurement": "GI50", "setting": "SN12C", "value": "> 100 µM (inactive)"}, {"measurement": "GI50", "setting": "XF498", "value": "88.1 µM (inactive)"}, {"measurement": "GI50", "setting": "BT-549", "value": "> 100 µM (inactive)"}, {"measurement": "GI50", "setting": "DLD-1", "value": "> 100 µM (inactive)"}, {"measurement": "GI50", "setting": "RPMI-8226", "value": "> 100 µM (inactive)"}, {"measurement": "GI50", "setting": "LOX IMVI", "value": "> 100 µM (inactive)"}, {"measurement": "GI50", "setting": "HT-29", "value": "> 92.7 µM (inactive)"}, {"measurement": "GI50", "setting": "ACHN", "value": "> 100 µM (inactive)"}, {"measurement": "GI50", "setting": "HOP-62", "value": "> 100 µM (inactive)"}, {"measurement": "GI50", "setting": "DU-145", "value": "> 100 µM (inactive)"}, {"measurement": "GI50", "setting": "KM-20L2", "value": "> 100 µM (inactive)"}, {"measurement": "GI50", "setting": "MOLT-4", "value": "> 75.9 µM (inactive)"}, {"measurement": "GI50", "setting": "UACC-62", "value": "> 100 µM (inactive)"}, {"measurement": "GI50", "setting": "SK-OV-3", "value": "> 100 µM (inactive)"}, {"measurement": "GI50", "setting": "IGROV-1", "value": "> 100 µM (inactive)"}, {"measurement": "GI50", "setting": "UACC-257", "value": "> 100 µM (inactive)"}, {"measurement": "GI50", "setting": "Malme-3M", "value": "> 100 µM (inactive)"}, {"measurement": "GI50", "setting": "MDA-N", "value": "> 100 µM (inactive)"}, {"measurement": "GI50", "setting": "PC-3", "value": "> 100 µM (inactive)"}, {"measurement": "GI50", "setting": "SNB-75", "value": "> 100 µM (inactive)"}, {"measurement": "GI50", "setting": "A549", "value": "> 100 µM (inactive)"}, {"measurement": "GI50", "setting": "SK-MEL-2", "value": "> 100 µM (inactive)"}, {"measurement": "GI50", "setting": "LXFL 529", "value": "59.3 µM (inactive)"}, {"measurement": "GI50", "setting": "HOP-92", "value": "> 81.8 µM (inactive)"}, {"measurement": "GI50", "setting": "CCRF-CEM", "value": "> 100 µM (inactive)"}, {"measurement": "GI50", "setting": "A498", "value": "> 84.5 µM (inactive)"}, {"measurement": "GI50", "setting": "SNB-19", "value": "> 100 µM (inactive)"}, {"measurement": "GI50", "setting": "UO-31", "value": "> 90.2 µM (inactive)"}, {"measurement": "GI50", "setting": "DMS-114", "value": "> 100 µM (inactive)"}, {"measurement": "GI50", "setting": "EKVX", "value": "> 88.9 µM (inactive)"}, {"measurement": "GI50", "setting": "CAKI-1", "value": "> 92.9 µM (inactive)"}, {"measurement": "GI50", "setting": "MDA-MB-435", "value": "> 100 µM (inactive)"}, {"measurement": "GI50", "setting": "NCI-H522", "value": "> 100 µM (inactive)"}, {"measurement": "GI50", "setting": "NCI-H23", "value": "> 100 µM (inactive)"}]}]}
